Source: patent EP0489933A1, “BILE ALCOHOL AND DRUG CONTAINING THE SAME AS ACTIVE INGREDIENT” (TSUMURA CO., LTD., priority 1990, dated 1992)
Where two headings read alike, the source gives them in different places.

Tests used:
male SD rats = assay: Thrombus formation in abdominal vena cava; format: in vivo; settings: 30 mg/kg, p.o.; dry weight of thrombus
Method: Each of male SD rats of 130 to 210 g in body weight was anesthetized with Nembutal® (50 mg/kg, i.p.) and subjected to median incision ventrotomy to release about a 2 cm portion of abdominal vena cava below the renal vein. Blood flow of the thus released vena cava was temporarily stopped for 5 minutes with 8 hemostatic clips. After recirculating blood for 5 minutes by removing the hemostatic clips, […] was ligated at a position just below the renal vein and the median-incised part was sutured. Two hours after the ligature, the thus treated rat was again subjected to ventrotomy to excise abdominal vena cava. The thus excised blood vessel was cut open on a filter paper which had been moistened with physiological saline, in order to take out thrombus. The thrombus thus obtained was washed with physiological saline to remove adhered blood and the like substances and then dried at 80°C for 12 hours or longer to measure its dry weight. In this instance, each drug to be tested was orally administered 90 minutes before the clipping to examine its effect by single administration on the formation of thrombus. Separately from this, each test drug was administered to 6-week-old male SD rat continuously for 7 days, thrombus was prepared in the eighth day in the same manner as described above and dry weight of the thrombus was measured, in order to examine effect of the continuous 7 day administration on the thrombus formation.

male mice of ddY line [1] = assay: Blood oxygen and carbon dioxide partial pressure; format: in vivo; settings: 20 mg/kg, i.p.; blood from abdominal aorta 60 minutes after administration
Method: In this experiment, 4-week-old male mice of ddY line (10 individuals per one group) were used after fasting treatment for 24 hours.
After 60 minutes of the administration of each compound of the present invention, each mouse was subjected to ventrotomy under anesthesia with Nembutal® (Dainabot Co., Ltd.; 50 mg/kg, i.p.) to collect blood from abdominal aorta, and the collected blood sample was immediately checked for its oxygen partial pressure (PO₂) and carbon dioxide partial pressure (PCO₂) using a blood-aerotonometer (Model 170, Ciba-Corning).

male rats of SHR line = assay: Blood pressure in SHR rats; format: in vivo; settings: 10 mg/kg, p.o., 2 weeks
Method: In this experiment, 12-week-old male rats of SHR line (5 to 6 individuals per one group) were used after rearing them for 1 week with normal feed. Oral administration of each test drug has been carried out for 2 weeks and then blood pressure (mmHg) was measured using a small animal hemomanometer (UR-1000).

[2] = system: platelet rich plasma (PRP); assay: Platelet aggregation in platelet rich plasma after oral administration; format: in vivo, male rat; settings: 30 mg/kg, p.o., blood 90 minutes after administration
Method: Each drug to be tested was orally administered to each male rat which has been subjected to fasting treatment for 18 to 24 hours. After 90 minutes of the administration, median incision ventrotomy was carried out under ether anesthesia to collect 9 volumes of blood using a syringe filled with 1 volume of 3.8% sodium citrate solution (3.8% sodium citrate solution:blood = 1:9). After thorough mixing, the thus prepared mixture was centrifuged at 800 rpm for 10 minutes at room temperature to collect the resulting supernatant fluid as platelet rich plasma (PRP). The residual portion was centrifuged at 3,000 rpm for 15 minutes at room temperature to collect the resulting supernatant fluid as platelet poor plasma (PPP). The PRP was diluted with the PPP to adjust the number of platelets to 3×10⁵ ± 2×10⁴ cells/µl. A 450 µl portion of the thus diluted PRP was incubated at 37°C for 3 minutes and then mixed with 50 µl of 1×10⁻⁵ M of ADP or 1×10⁻⁵ g/ml of collagen. Thereafter, platelet aggregation test of the mixture was carried out using an aggregometer by measuring transmittance at 940 nm.

erythrocytes = assay: Erythrocyte deformability (filtration through 5 µm filter) after oral administration; format: in vivo, male rats of Wistar line; settings: 30 mg/kg, p.o.; blood collected 90 minutes after administration; number of filtered erythrocytes
Method: In this experiment, 9-week-old male rats of Wistar line (5 to 6 individuals per one group) were used after rearing them for 1 week with normal feed. After 24 hours of fasting, each test drug was administered orally and, 90 minutes thereafter, blood sample was collected from lower abdominal vena cava of each rat under anesthesia with Nembutal® (1 ml/kg, i.p.). Blood samples obtained in this way were checked for their blood clotting time and erythrocyte deformability.
Measuring procedures are as follows.
Erythrocyte deformability ... The collected blood is extruded from a syringe with a constant flow of He in a holder equipped with a filter (5 µm). Weight of blood and the number of erythrocytes filtered during a fixed time are measured and the deformability is expressed based on the number of filtered erythrocytes. The results of these measurements are shown respectively in Tables 11 and 12.

[3] = system: rats of diabetes mellitus; assay: Blood sugar level in streptozotocin-induced diabetes mellitus; format: in vivo, male rats of Wistar line; settings: 50 mg/kg, i.o.; administered for 1 week beginning 1 week after streptozotocin (40 mg/kg); serum
Method: In this experiment, 8-week-old male rats of Wistar line (5 individuals per one group) were used after rearing them for 1 week with normal feed. Streptozotocin (40 mg/kg) was administered by tail intravenous injection to obtain rats of diabetes mellitus. Beginning after 1 week of the streptozotocin administration, oral administration of each test drug has been carried out for 1 week, followed by 24 hours of fasting. Thereafter, blood sample was collected from lower abdominal vena cava under anesthesia with Nembutal® (1 ml/kg, i.p.). Serum samples were prepared from the thus collected blood samples and checked for their blood sugar levels, with the results shown in Table 9.

male mice of ddY line [4] = assay: Survival time under hypoxia (aeration with 96% nitrogen and 4% oxygen); format: in vivo; settings: 50 mg/kg, i.p., 60 minutes before aeration with 96% nitrogen and 4% oxygen; time to respiratory arrest
Method: In this experiment, 5 to 6-week-old male mice of ddY line (10 individuals per one group) were used after fasting treatment for 24 hours.
Each compound obtained in the present invention was administered intraperitoneally. After 60 minutes of the administration, each mouse was transferred separately into a transparent vessel (capacity, 1,000 ml) equipped with an air exit, and the vessel was aerated with a mixed gas consisting of 96% nitrogen and 4% oxygen at an aeration rate of 5 ℓ/min.
All tested mice died within 180 seconds after the commencement of the gas mixture aeration. Terminal respiration was observed several times prior to the respiratory arrest. Survival time of the control group was roughly in the range of from 96 to 111 seconds.

male mice of ddY line [5] = format: in vivo; settings: 50 mg/kg, i.p., 60 minutes before KCN (3.0 mg/kg) tail intravenous injection; for Survival Time ±S.E.: time to respiratory arrest

SMILES	Antithrombotic Effect: Thrombus weight ±S.E. (male SD rats)	Carbon Dioxide Partial Pressure (male mice of ddY line [1])	Oxygen Partial Pressure (male mice of ddY line [1])	Blood Pressure ±S.E. Average (male rats of SHR line)	Blood Pressure ±S.E. Maximum (male rats of SHR line)	Platelet Aggregation Ratio ±S.E. ([2]; ADP (1×10⁻⁵ M))	Platelet Aggregation Ratio ±S.E. ([2]; Collagen (1×10⁻⁵ g/ml))	Erythrocyte Deformation: Erythrocyte counts ±S.E. (erythrocytes)	Blood Sugar Level ± S.E. [3]	Survival Time ±S.E. (male mice of ddY line [4])	Lethality (%) (male mice of ddY line [5])	Survival Time ±S.E. (male mice of ddY line [5])
C[C@H](CCCC(CO)CO)[C@H]1CC[C@H]2[C@@H]3[C@H](O)C[C@H]4C[C@H](O)CC[C@]4(C)[C@H]3C[C@H](O)[C@]12C [Example 7, 3α,7α,12α,26,27-pentahydroxy-5α-cholestane]	12.2 ± 1.33 mg	41.1 mmHg	81.1 mmHg	155 ± 3.6 mmHg	198 ± 3.7 mmHg	44.3 ± 2.43%	42.1 ± 3.15%	4.02 ± 0.37 × 10⁷	161 ± 5.5 mg/dL	121.5 ± 6.00 s	80%	89 ± 9.99 s
C[C@H](CC[C@H](O)C(CO)CO)[C@H]1CC[C@H]2[C@@H]3[C@H](O)C[C@@H]4C[C@H](O)CC[C@]4(C)[C@H]3C[C@H](O)[C@]12C [Example 8, (24S)-3α,7α,12α,24,26,27-hexahydroxy-5β-cholestane]	10.5 ± 1.43 mg	42.1 mmHg	98.7 mmHg	151 ± 9.5 mmHg	180 ± 6.6 mmHg	41.8 ± 1.81%	46.6 ± 3.81%	4.53 ± 0.82 × 10⁷	112 ± 8.4 mg/dL	144.8 ± 10.27 s	70%	123.0 ± 7.19 s
C[C@H](CCCC(C)(O)CO)[C@H]1CC[C@H]2[C@@H]3[C@H](O)C[C@@H]4C[C@H](O)CC[C@]4(C)[C@H]3C[C@H](O)[C@]12C (stereo partly drawn) [Illustrative Example 4, 5β-cholestane-3α,7α,12α,25,26-pentol]	14.1 ± 2.11 mg	40.5 mmHg	91.9 mmHg	144 ± 4.4 mmHg	181 ± 2.5 mmHg	42.5 ± 1.65%	48.7 ± 2.53%	3.93 ± 0.38 × 10⁷	133 ± 5.4 mg/dL	118.0 ± 5.11 s	70%	119.0 ± 7.12 s
C[C@H](CC[C@H]1OC[C@H]1CO)[C@H]1CC[C@H]2[C@@H]3[C@H](O)C[C@@H]4C[C@H](O)CC[C@]4(C)[C@H]3C[C@H](O)[C@]12C [Example 4, (24R)-(25R)-(+)-24,26-epoxy-5β-cholestane-3α,7α,12α,27-tetrol]	11.2 ± 3.81 mg	39.1 mmHg	85.3 mmHg	153 ± 2.8 mmHg	205 ± 7.8 mmHg	46.1 ± 2.65%	47.7 ± 3.88%	3.97 ± 0.39 × 10⁷	181 ± 8.9 mg/dL	115.5 ± 3.88 s	80%	98.1 ± 13.1 s
